One assay addresses RET kinase (Homo sapiens, UniProt P07949). Kind of assay: RET Kinase Activity Assay. The assay is classed as biochemical. As to conditions: read-out: Ret, % INH, at 30 uM. As for the experimental part: The disclosed compounds were assayed for their ability to inhibit the activity of RET kinase. Nunc Maxwasorb plates were coated with streptavidin by overnight incubation with 100 μL per well of 1 μg/mL Streptavidin in DPBS. Prior to the start of the experiment, the plates were washed with TBST (3×200 μL) and blocked for at least 1 hour by adding 150 μL of 5% BSA/TBST. The plates were washed with TBST (3×200 […]) and left dry immediately before the capture step.
The test articles and controls (Staurosporine and Sutent) were prepared using the following assay buffer @ 3× desired final concentration (50 mM […], 0.02 mg/mL BSA, 10 mM MgCl2, 0.1 mM Na3VO4, 1 mM EGTA, 75 μM ATP0.01% NP-40, 2 mM DTT in 10% glycerol/water). In a reaction plate, were added rapidly 20 μL test article (or control) and 20 μL RET (0.25 ng/4 final concentration). The plate was incubated for 15 minutes. To the reaction plate was added 20 μL of Pyk-2 (0.25 ng/4 final concentration). The plate was incubated at room temperature for one hour.
From the reaction plate, 50 μL was transferred to the streptavidin coated plate. The capture plate was incubated at room temperature for 30 minutes then washed 6× with TBST. To the capture plate was added 100 μL/well of Cell Signaling anti-phospho tyrosine at a dilution of 1:3000 in 2% BSA/TBST. The plate was incubated for one hour at room temperature then washed 6× with TBST. To the capture plate was added 100 μL/well of Alkaline Phosphatase Tagged Goat anti Mouse Antibody at a dilution of 1:4000 in 2% BSA/TBST. The plate was incubated for one hour at room temperature then washed 6× with TBST. The fluorescent readout was initiated by the addition of 100 μL/well of Attophos reagent (6 mg/10 mL). The reading was done on the Perkin Elmer Envision system.

The next assay deals with T1, Tec kinase (Homo sapiens, UniProt P42680).
T1 sequence (P42680 1-631): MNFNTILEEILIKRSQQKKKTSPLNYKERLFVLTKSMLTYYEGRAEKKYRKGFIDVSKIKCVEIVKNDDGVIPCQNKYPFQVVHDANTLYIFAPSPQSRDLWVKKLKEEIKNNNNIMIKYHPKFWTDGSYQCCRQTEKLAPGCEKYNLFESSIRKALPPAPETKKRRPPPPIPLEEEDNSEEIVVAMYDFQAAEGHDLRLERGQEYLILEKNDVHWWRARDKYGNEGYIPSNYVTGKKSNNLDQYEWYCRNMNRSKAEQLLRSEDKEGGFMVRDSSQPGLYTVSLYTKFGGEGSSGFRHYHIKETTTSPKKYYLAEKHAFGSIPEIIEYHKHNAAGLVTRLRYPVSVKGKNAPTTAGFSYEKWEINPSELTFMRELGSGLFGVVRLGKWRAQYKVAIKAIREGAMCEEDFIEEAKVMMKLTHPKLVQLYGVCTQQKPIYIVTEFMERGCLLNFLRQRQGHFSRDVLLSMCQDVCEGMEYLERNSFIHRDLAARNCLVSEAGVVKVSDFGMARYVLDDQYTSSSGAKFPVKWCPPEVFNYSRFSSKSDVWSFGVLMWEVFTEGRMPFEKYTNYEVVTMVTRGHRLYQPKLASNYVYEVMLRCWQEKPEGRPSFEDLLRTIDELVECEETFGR
The experiment in a line: Tec Kinase Activity Assay. The settings on record: read-out: Tec % INH, at 30 uM. The assay is classed as biochemical. As for the experimental part:
The disclosed compounds were assayed for their ability to inhibit the activity of Tec kinase. Nunc Maxisorb plates were coated with streptavidin by overnight incubation with 100 μL per well of 1 μg/mL Streptavidin in DPBS. Prior to the start of the experiment, the plates were washed with TBST (3×200 μL) and blocked for at least 1 hour by adding 150 μL of 5% BSA/TBST. The plates were washed with TBST (3×200 μL/well) and left dry immediately before the capture step.
The test articles and controls (Staurosporine and Sutent) were prepared using the following assay buffer @ 3× desired final concentration (50 mM Tris-HCl, 0.02 mg/mL BSA, 10 mM MgCl2, 0.1 mM Na3VO4, 1 mM EGTA, 75 μM ATP0.01% NP-40, 2 mM DTT in 10% glycerol/water). In a reaction plate were added rapidly 20 μL test article (or control) and 20 μL TEC 0.25 ng/4. The plate was incubated for 30 minutes. To the reaction plate was added 20 μL of Pyk-2.5 ng/μL. The plate was incubated at room temperature for two hours. From the reaction plate, 50 μL was transferred to the streptavidin coated plate. The capture plate was incubated at room temperature for 30 minutes then washed 6× with TBST. To the capture plate was added 100 μL/well of Cell Signaling anti-phospho tyrosine at a dilution of 1:3000 in 2% BSA/TBST. The plate was incubated for one hour at room temperature then washed 6× with TBST. To the capture plate was added 100 μL/well of Alkaline Phosphatase Tagged Goat anti Mouse Antibody at a dilution of 1:4000 in 2% BSA/TBST. The plate was incubated for one hour at room temperature then washed 6× with TBST. The fluorescent readout was initiated by the addition of 100 μL/well of Attophos reagent (6 mg/10 mL). The reading was done on the Perkin Elmer Envision system.

Sequence of RET kinase (P07949 29-1114): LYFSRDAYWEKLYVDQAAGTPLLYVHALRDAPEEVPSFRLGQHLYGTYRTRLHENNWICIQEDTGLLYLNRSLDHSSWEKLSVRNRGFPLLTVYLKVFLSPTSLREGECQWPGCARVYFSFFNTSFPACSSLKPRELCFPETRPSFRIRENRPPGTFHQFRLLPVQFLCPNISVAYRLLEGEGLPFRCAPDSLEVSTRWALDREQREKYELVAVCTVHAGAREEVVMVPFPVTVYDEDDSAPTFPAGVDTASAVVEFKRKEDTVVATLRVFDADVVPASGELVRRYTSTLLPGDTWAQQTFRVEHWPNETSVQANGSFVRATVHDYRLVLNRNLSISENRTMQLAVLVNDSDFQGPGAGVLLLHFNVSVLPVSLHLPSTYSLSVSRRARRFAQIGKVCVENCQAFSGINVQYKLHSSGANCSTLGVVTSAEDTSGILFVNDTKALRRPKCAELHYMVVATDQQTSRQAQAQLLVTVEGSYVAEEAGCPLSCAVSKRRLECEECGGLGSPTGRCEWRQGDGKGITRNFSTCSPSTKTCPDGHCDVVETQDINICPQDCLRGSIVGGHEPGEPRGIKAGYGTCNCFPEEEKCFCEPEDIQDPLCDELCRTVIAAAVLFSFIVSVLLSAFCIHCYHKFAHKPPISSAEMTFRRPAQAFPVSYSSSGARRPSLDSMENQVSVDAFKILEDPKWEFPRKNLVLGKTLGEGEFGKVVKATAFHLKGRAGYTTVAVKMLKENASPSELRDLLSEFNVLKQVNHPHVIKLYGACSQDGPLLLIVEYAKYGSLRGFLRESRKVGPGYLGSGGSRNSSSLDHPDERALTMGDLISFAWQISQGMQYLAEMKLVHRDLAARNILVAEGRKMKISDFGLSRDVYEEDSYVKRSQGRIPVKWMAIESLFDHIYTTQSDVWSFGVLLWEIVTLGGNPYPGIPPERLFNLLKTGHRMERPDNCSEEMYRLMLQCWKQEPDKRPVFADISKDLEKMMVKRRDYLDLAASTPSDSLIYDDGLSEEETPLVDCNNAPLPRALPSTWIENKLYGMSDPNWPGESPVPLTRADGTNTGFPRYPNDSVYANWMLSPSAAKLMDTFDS

On to `COc1cc2c(cc1OC)C(c1ccccc1Cl)N(c1nc(N)nc3[nH]cnc13)CC2` (stereo not shown) [Compound 48, 6-[1-(2-chlorophenyl)-6,7-dimethoxy-3,4-dihydroisoquinolin-2(1H)-yl]-9H-purin-2-amine], for which the inhibition at 30 µM on RET kinase and at Tec kinase was less than 50% throughout.

Turning to `COc1cc2c(cc1OC)C(c1cccc(C(F)(F)F)c1)N(c1nc(N)nc3[nH]cnc13)CC2` (stereo not shown) [Compound 50, 6-{6,7-dimethoxy-1-[3-(trifluoromethyl)phenyl]-3,4-dihydroisoquinolin-2(1H)-yl}-9H-purin-2-amine], the inhibition at 30 µM on RET kinase and at Tec kinase was less than 50% throughout.
